# From ChEMBL document CHEMBL4507293 (2021)
# Legend:
# [1] = target: MAP/microtubule affinity-regulating kinase 3 (Homo sapiens) (UniProt P27448); assay: Protein Serine/Threonine Kinase, MARK3 Eurofins-Panlabs enzyme assay; conditions: Compound concentration 10.0 uM
# [2] = target: Monoamine oxidase A (MAO-A) (Homo sapiens, UniProt P21397); assay: Inhibition of Monoamine Oxidase MAO-A at compound concentration of 10.0 uM in the Eurofins-Panlabs enzyme assay (Eurofins_assay_140010); design: substrate with concentration 50 uM Kynuramine, incubation time 60 min, incubation temperature 37 C; conditions: recombinant human MAO-A expressed in insect Hi5 cells, probe kynuramine, compound concentration 10 uM
# [3] = target: Glutamate receptor 2 (Homo sapiens) (UniProt P42262); conditions: Rattus norvegicus; Compound concentration 10.0 uM
# [4] = target: 5-hydroxytryptamine receptor 1B (Homo sapiens) (UniProt P28222); assay: Inhibition of Serotonin (5-Hydroxytryptamine) 5-HT1B at 10 µM in the Eurofins-Panlabs radioligand binding assay (Eurofins_assay_271200); conditions: Compound concentration 10.0 uM
# [5] = target: Neurotensin receptor type 1 (Homo sapiens) (UniProt P30989); assay: Neurotensin NT1 Eurofins-Panlabs radioligand binding assay; design: ligand concentration 0.02 nM, non-specific ligand with concentration 1 µM Neurotensin, incubation time 45 min, incubation temperature 25 °C; conditions: Compound concentration 10.0 uM
# [6] = target: High affinity choline transporter 1 (Homo sapiens) (UniProt Q9GZV3); assay: Transporter, Choline Eurofins-Panlabs radioligand binding assay; design: ligand concentration 0.75 nM; conditions: Rattus norvegicus; Compound concentration 10.0 uM
# [7] = target: Endothelin receptor type B (Homo sapiens) (UniProt P24530); conditions: Compound concentration 10.0 uM
# [8] = target: Vasopressin V1a receptor (Homo sapiens) (UniProt P37288); conditions: Compound concentration 10.0 uM
# [9] = target: Prostaglandin E2 receptor EP3 subtype (Homo sapiens) (UniProt P43115); assay: Prostanoid EP3 Eurofins-Panlabs radioligand binding assay; design: ligand concentration 0.5 nM, non-specific ligand with concentration 10 µM Prostaglandin EŽ2 (PGE2), incubation time 60 min, incubation temperature 25 °C; conditions: Compound concentration 10.0 uM
# [10] = target: ATP-sensitive inward rectifier potassium channel 11 (Cricetulus griseus) (UniProt A0A3L7HHE1); assay: Inhibition of Potassium Channel [KATP] at 10 µM in the Eurofins-Panlabs radioligand binding assay (Eurofins_assay_265600); conditions: Cricetinae; Compound concentration 10.0 uM
# [11] = target: Somatostatin receptor type 2 (Homo sapiens) (UniProt P30874); assay: Somatostatin sst2 Eurofins-Panlabs radioligand binding assay; design: ligand concentration 0.03 nM; conditions: Compound concentration 10.0 uM
# [12] = target: Melanocortin receptor 4 (Homo sapiens) (UniProt P32245); assay: Inhibition of Melanocortin MC4 at 10 µM in the Eurofins-Panlabs radioligand binding assay (Eurofins_assay_251350); design: ligand concentration 0.02 nM; conditions: Compound concentration 10.0 uM
# Homo sapiens = species on record: Homo sapiens; assay: Inhibition of Nicotinic Acetylcholine at compound concentration of 10.0 uM in the Eurofins-Panlabs radioligand binding assay (Eurofins_assay_258590); type: protein-complex assay; conditions: Compound concentration 10.0 uM
# [13] = target: Neuropeptide Y receptor type 2 (Homo sapiens) (UniProt P49146); assay: Inhibition of Neuropeptide Y Y2 at 10 µM in the Eurofins-Panlabs radioligand binding assay (Eurofins_assay_257110); conditions: Compound concentration 10.0 uM
# [14] = target: Rod cGMP-specific 3',5'-cyclic phosphodiesterase subunit alpha (Homo sapiens, UniProt P16499); assay: Biochemical assay (PDE6A)
# Rattus norvegicus [15] = species on record: Rattus norvegicus; assay: Inhibition of Glutamate, NMDA, Phencyclidine at 10 µM in the Eurofins-Panlabs radioligand binding assay (Eurofins_assay_233000); type: protein-complex assay; conditions: Compound concentration 10.0 uM
# [16] = target: GABA-A receptor; anion channel (Rattus norvegicus) (UniProt O09028+P15431+P18506+P18508+P19969+P20236+P23574+P23576+P28471+P28473+P30191+P62813+P63079+P63138+Q91ZM7+Q9ES14); conditions: Compound concentration 10.0 uM
# Rattus norvegicus [17] = species on record: Rattus norvegicus; assay: GABAA, Ro-15-1788, Hippocampus Eurofins-Panlabs radioligand binding assay; design: ligand concentration 1 nM; conditions: Compound concentration 10.0 uM
# [18] = target: Gamma-aminobutyric acid type B receptor subunit 1 (Homo sapiens) (UniProt Q9UBS5); conditions: Rattus norvegicus; Compound concentration 10.0 uM
# [19] = target: Progesterone receptor (Homo sapiens) (UniProt P06401); assay: Inhibition of Progesterone PR-B at 10 µM in the Eurofins-Panlabs radioligand binding assay (Eurofins_assay_268020); design: ligand concentration 1.4 nM; conditions: Compound concentration 10.0 uM
# [20] = target: T1, Muscarinic acetylcholine receptor M2 (Homo sapiens) (UniProt P08172); conditions: Compound concentration 10.0 uM
# T1 sequence (whole entry): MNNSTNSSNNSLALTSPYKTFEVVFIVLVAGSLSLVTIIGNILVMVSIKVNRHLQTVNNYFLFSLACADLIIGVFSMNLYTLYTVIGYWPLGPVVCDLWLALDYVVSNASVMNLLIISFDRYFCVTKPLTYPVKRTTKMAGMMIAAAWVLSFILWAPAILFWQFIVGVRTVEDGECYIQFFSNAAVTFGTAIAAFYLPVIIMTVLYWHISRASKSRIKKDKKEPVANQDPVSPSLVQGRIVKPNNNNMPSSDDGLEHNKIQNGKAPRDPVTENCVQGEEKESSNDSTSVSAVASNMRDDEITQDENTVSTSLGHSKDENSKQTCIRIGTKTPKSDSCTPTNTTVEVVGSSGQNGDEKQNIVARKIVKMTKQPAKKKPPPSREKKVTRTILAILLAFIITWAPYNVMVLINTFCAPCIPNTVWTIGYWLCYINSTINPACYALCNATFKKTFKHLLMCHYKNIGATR
# [21] = target: Acetylcholine receptor subunit alpha (Homo sapiens) (UniProt P02708); assay: Inhibition of Nicotinic Acetylcholine D1, Bungarotoxin at 10 µM in the Eurofins-Panlabs radioligand binding assay (Eurofins_assay_258700); conditions: Compound concentration 10.0 uM
# [22] = target: 5-hydroxytryptamine receptor 5A (Homo sapiens) (UniProt P47898); conditions: Compound concentration 10.0 uM
# [23] = target: Vasopressin V2 receptor (Homo sapiens) (UniProt P30518); assay: Inhibition of Vasopressin V2 at 10 µM in the Eurofins-Panlabs radioligand binding assay (Eurofins_assay_287610); design: ligand concentration 4 nM; conditions: Compound concentration 10.0 uM
# [24] = target: T2, 5-hydroxytryptamine receptor 2C (Homo sapiens) (UniProt P28335); conditions: Compound concentration 10.0 uM
# T2 sequence (whole entry): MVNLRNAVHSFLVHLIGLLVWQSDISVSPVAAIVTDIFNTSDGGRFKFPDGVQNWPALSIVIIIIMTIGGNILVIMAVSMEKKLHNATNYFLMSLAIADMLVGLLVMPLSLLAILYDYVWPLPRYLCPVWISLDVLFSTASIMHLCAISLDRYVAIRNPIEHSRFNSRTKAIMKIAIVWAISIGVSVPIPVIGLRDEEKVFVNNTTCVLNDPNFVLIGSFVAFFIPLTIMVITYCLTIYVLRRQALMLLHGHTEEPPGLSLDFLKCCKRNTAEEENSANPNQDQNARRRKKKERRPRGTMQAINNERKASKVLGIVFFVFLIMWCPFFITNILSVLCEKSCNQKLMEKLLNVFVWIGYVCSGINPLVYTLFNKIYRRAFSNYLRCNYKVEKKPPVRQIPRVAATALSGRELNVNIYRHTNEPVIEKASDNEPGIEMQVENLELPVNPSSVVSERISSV
# [25] = target: cAMP and cAMP-inhibited cGMP 3',5'-cyclic phosphodiesterase 10A (Homo sapiens, UniProt Q9Y233); assay: Biochemical assay (PDE10A)
# Melanocortin receptor 4 (Homo sapiens), sequence (P32245 whole entry): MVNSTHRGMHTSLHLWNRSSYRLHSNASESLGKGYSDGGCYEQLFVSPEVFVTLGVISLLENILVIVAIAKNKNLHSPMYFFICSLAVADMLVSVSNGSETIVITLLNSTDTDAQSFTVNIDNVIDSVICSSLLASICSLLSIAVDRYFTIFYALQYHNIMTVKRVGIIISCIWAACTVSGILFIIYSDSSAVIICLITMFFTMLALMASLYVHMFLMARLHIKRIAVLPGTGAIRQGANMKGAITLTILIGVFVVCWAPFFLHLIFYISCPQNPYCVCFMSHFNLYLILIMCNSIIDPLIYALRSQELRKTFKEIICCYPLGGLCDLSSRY
# ATP-sensitive inward rectifier potassium channel 11 (Cricetulus griseus), sequence (A0A3L7HHE1 as listed by the source): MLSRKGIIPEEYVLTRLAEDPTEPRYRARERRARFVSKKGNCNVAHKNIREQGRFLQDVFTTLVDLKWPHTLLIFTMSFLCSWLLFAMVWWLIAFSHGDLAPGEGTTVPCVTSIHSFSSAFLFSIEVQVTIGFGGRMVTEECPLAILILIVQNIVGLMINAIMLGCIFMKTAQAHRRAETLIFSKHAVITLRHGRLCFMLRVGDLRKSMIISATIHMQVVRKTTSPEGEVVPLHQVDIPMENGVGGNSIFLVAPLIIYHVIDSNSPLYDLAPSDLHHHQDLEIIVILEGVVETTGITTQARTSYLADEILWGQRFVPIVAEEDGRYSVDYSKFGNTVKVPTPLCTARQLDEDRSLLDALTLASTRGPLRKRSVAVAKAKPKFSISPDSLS
# Monoamine oxidase A (MAO-A), sequence (P21397 whole entry): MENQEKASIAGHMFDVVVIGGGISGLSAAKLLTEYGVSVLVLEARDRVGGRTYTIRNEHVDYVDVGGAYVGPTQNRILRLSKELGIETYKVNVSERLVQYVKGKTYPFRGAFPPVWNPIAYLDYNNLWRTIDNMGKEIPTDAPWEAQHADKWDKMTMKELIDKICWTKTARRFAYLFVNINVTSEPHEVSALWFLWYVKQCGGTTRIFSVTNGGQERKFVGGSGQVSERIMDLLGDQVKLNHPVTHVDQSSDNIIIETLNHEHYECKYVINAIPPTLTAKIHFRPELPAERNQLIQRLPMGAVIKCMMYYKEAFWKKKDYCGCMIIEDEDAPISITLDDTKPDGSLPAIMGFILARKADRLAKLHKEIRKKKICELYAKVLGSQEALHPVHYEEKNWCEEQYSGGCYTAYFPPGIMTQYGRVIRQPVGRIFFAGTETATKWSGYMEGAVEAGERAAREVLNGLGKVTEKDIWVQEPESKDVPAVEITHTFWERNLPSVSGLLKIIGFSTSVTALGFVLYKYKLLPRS
# Prostaglandin E2 receptor EP3 subtype (Homo sapiens), sequence (P43115 whole entry): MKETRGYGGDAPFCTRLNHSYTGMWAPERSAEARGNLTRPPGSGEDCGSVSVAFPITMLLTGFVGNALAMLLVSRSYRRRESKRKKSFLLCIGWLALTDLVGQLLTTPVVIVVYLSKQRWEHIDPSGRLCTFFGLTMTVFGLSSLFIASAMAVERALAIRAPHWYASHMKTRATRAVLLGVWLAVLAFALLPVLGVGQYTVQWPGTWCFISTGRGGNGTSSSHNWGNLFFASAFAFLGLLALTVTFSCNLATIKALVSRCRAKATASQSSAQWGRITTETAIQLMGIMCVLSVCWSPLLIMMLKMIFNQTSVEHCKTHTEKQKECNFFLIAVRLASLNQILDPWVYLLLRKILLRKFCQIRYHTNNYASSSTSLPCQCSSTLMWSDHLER
# Vasopressin V2 receptor (Homo sapiens), sequence (P30518 whole entry): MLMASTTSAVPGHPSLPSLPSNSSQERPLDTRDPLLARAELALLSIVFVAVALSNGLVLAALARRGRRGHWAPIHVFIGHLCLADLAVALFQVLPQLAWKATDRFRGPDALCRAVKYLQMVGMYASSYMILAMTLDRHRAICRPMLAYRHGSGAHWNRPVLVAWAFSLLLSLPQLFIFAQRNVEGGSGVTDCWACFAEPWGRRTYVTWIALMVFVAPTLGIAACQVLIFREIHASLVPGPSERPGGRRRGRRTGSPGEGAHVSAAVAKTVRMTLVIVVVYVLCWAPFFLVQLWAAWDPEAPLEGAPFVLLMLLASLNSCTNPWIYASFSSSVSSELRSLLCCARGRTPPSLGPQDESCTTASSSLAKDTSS
# Endothelin receptor type B (Homo sapiens), sequence (P24530 whole entry): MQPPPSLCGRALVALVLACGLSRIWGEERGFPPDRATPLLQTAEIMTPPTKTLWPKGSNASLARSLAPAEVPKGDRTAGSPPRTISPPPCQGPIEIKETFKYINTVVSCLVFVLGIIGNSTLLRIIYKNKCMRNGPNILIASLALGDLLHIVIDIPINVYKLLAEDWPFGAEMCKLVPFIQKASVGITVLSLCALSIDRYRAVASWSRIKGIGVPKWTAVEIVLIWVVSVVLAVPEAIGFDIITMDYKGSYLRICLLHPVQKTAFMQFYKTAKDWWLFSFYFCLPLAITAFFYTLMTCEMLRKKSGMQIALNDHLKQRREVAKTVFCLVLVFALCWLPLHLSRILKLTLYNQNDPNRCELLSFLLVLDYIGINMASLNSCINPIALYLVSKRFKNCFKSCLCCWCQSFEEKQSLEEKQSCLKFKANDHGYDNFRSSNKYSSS
# Acetylcholine receptor subunit alpha (Homo sapiens), sequence (P02708 whole entry): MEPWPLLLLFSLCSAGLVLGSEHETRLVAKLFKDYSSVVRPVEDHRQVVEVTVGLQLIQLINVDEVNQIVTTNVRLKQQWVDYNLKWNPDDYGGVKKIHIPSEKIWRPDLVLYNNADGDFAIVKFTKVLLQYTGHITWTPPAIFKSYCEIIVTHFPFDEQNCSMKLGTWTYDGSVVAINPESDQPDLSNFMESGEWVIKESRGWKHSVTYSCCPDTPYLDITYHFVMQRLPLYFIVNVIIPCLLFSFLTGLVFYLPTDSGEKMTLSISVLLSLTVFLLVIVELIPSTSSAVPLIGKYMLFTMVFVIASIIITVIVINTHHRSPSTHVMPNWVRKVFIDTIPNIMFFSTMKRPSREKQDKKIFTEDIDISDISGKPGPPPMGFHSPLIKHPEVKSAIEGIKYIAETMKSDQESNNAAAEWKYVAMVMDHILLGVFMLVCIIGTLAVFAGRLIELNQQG
# MAP/microtubule affinity-regulating kinase 3 (Homo sapiens), sequence (P27448 whole entry, looked up): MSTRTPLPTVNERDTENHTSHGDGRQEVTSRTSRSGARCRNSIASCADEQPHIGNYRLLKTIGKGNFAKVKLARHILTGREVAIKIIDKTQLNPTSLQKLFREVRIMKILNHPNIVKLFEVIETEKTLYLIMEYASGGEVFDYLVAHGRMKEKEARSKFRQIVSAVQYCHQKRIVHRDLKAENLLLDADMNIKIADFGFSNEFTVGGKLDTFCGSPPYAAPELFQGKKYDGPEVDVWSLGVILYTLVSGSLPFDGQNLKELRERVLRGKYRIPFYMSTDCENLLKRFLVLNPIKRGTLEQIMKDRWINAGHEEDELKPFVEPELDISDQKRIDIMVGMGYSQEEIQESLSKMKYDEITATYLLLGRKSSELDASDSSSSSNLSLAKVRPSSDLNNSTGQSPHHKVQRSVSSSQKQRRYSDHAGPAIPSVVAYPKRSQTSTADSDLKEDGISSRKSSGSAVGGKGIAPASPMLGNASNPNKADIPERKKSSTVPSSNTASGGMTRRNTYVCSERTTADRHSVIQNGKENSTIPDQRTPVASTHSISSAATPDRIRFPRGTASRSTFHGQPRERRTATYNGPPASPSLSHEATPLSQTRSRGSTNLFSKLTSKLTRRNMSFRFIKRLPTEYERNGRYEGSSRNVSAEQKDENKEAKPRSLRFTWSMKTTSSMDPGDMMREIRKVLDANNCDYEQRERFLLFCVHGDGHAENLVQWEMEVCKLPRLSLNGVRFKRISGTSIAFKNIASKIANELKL
# Progesterone receptor (Homo sapiens), sequence (P06401 whole entry): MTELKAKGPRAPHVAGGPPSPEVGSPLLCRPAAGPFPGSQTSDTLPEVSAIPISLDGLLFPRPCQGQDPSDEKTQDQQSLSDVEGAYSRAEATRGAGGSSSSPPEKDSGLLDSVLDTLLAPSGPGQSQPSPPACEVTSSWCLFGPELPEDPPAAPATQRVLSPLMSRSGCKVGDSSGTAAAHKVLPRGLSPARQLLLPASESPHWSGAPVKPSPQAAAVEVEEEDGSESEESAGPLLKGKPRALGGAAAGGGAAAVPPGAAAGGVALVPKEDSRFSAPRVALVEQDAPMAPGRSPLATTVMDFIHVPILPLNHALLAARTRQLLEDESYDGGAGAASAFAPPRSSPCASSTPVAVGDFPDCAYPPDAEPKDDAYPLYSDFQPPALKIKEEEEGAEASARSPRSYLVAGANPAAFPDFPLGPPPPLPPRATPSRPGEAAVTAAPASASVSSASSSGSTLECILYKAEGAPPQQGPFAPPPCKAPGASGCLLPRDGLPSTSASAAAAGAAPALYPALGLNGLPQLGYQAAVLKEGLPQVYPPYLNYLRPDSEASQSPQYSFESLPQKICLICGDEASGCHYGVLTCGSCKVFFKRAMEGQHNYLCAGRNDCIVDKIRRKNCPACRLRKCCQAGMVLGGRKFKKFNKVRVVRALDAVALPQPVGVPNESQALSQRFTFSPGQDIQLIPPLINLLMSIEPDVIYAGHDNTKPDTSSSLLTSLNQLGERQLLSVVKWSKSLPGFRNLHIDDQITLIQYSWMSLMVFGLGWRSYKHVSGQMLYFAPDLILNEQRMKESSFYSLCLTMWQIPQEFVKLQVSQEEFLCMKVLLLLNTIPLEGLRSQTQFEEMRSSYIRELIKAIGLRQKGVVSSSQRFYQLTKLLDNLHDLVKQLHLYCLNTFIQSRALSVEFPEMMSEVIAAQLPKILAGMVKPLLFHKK
# Somatostatin receptor type 2 (Homo sapiens), sequence (P30874 whole entry): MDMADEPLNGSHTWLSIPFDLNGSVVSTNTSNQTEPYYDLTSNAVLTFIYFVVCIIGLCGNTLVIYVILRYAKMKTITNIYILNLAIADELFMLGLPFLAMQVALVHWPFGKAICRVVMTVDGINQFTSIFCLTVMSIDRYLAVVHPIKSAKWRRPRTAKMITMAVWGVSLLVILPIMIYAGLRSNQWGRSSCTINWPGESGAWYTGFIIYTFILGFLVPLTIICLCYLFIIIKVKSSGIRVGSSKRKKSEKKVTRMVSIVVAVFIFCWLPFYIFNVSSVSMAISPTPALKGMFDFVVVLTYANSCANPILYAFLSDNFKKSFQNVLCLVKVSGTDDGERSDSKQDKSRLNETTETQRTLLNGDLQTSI
compound,measurement,setting,value
COCCOc1nc(-c2ccc(Cl)nc2)nc2c1CN(C(=O)c1ncn3ccccc13)CC2 [THPP-1],inhibition,[1],7%
same,"inhibition at 60 min, 10 µM",[2],42% (not active)
same,inhibition,[3],-10%
same,inhibition,[4],7%
same,inhibition,[5],10%
same,inhibition,[6],9%
same,inhibition,[7],0%
same,inhibition,[8],1%
same,inhibition,[9],-1%
same,inhibition,[10],-4%
same,inhibition,[11],0%
same,inhibition,[12],8%
same,inhibition,Homo sapiens,-7%
same,inhibition,[13],1%
same,Ki,[14],44 nM
same,inhibition,Rattus norvegicus [15],-10%
same,inhibition,[16],4%
same,inhibition,Rattus norvegicus [17],37%
same,inhibition,[18],-5%
same,inhibition,[19],12%
same,inhibition,[20],5%
same,inhibition,[21],-3%
same,inhibition,[22],-7.27%
same,inhibition,[23],-2%
same,inhibition,[24],22%
CC(C)CC(=O)N1CCc2nc(-c3ccc(Br)cc3)nc(N(C)Cc3ccccc3)c2C1 [THPP-1-NC],Ki,[25],522 nM (not active)
